Experimental findings from patent US10124004B2, “Pyrido[3,4-d]pyrimidine derivative and pharmaceutically acceptable salt thereof” (Teijin Pharma Limited, priority 2015, dated 2018) are described below.

Type in all cases: biochemical
Assay [1] concerns the target T1, CDK4/cyclin D3 (Homo sapiens, UniProt P11802).
T1 construct: purchased Carna Biosciences, Inc. QS S Assist CDK4/Cyclin D3_FP Kit
Kind of assay: Human CDK4/cyclin D3 inhibitory activity (QS S Assist CDK4/Cyclin D3_FP Kit, IMAP fluorescence polarization). The note with it: 50% inhibitory concentration against CDK4/cyclin D3, given as class symbol. In outline:
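IMAP fluorescence polarization kit: CDK4/cyclin D3 at 12.5-25 ng/well with kit ATP/substrate/metal mix in 20 mM HEPES pH 7.4, 0.01% Tween20, 2 mM DTT, 45 min at room temperature. FP read at 485/535 nm after 30 min binding; IC50 from dose-response fit of percent inhibition versus enzyme and no-enzyme controls.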

Assay [2] addresses T2, CDK2/cyclin A2 (Homo sapiens, UniProt P24941).
T2 construct: purchased Carna Biosciences, Inc. QS S Assist CDK2/Cyclin A2_FP Kit
Kind of assay: Human CDK2/cyclin A2 inhibitory activity (QS S Assist CDK2/Cyclin A2_FP Kit, IMAP fluorescence polarization). Conditions: 50% inhibitory concentration against CDK2/cyclin A2, given as class symbol. In outline:
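Kinase activity read as fluorescence polarization (485/535 nm) after phosphorylated fluorescent substrate binds IMAP reagent (30 min, RT, dark). Enzyme (2.5 ng/well) reacted 60 min at RT with ATP/substrate/metal in HEPES pH 7.4 buffer with Tween 20 and DTT; no-enzyme wells define 0% activity; IC50 by curve fit.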

Assay [3] addresses CDK6/cyclin D3 (Homo sapiens, UniProt Q00534). Kind of assay: Human CDK6/cyclin D3 inhibitory activity (off-chip mobility shift assay). The note with it: 50% inhibitory concentration against CDK6/cyclin D3; 300 μM ATP, room temperature, five hours; read-out: CDK6 Activity Symbol. The protocol:
Human CDK6/Cyclin D3 Inhibitory Activity
CDK6/cyclin D3 inhibitory activity was determined by the off-chip mobility shift assay (MSA). The MSA separates proteins from one another on the basis of a difference in electrophoretic mobility depending on the molecular weight or electric charge of the proteins. The kinase activity is determined by quantifying the degree of phosphorylation through electrophoretic analysis of a positive to negative change in electric charge of the substrate phosphorylated by the kinase.
Each solution was prepared with an assay buffer containing 20 mM HEPES (pH 7.5), 0.01% Triton X-100, and 2 mM dithiothreitol. A test compound solution was prepared by dilution of the test compound with dimethyl sulfoxide (DMSO) to a concentration 100 times higher than the final concentration and then 25-fold dilution with the assay buffer to a concentration four times higher than the final concentration. An ATP/substrate/metal solution was prepared to have a concentration four times higher than the final concentration. An enzyme solution was prepared to have a concentration twice higher than the final concentration. The final enzyme concentration was adjusted to an appropriate level on the basis of the enzyme activity signal and the inhibitory activity of a positive control compound.
The test compound solution (5 μL/well) and the ATP/substrate/metal solution (5 μL/well) were added to a 384-well plate, and the enzyme solution or the assay buffer (10 μL/well) was added to the plate (total amount of the reaction mixture: 20 μL/well) for initiation of enzymatic reaction. […] The reaction was performed at room temperature for five hours, and a termination buffer (QuickScout Screening Assist MSA, manufactured by Carna Biosciences, Inc.) (60 μL/well) was then added to the plate for termination of the reaction. Subsequently, the substrate peptide and the phosphorylated peptide in the reaction mixture were separated from each other and quantified with LabChip 3000 (manufactured by Caliper Lifesciences). The kinase reaction was evaluated by the product ratio (P/(P+S)) calculated from the peak height (S) of the substrate peptide and the peak height (P) of the phosphorylated peptide.
The percent inhibition of enzyme activity was calculated for each test compound (note: enzyme activity=100% in the case of addition of the enzyme solution and addition of DMSO instead of the test compound solution, whereas enzyme activity=0% in the case of addition of the assay buffer instead of the enzyme solution and addition of DMSO instead of the test compound solution). The percent inhibition of enzyme activity was fitted to a dose-response curve, to determine a 50% inhibitory concentration against CDK6/cyclin D3.
In each table, “+++” corresponds to IC50<10 nM, “++” 10 nM≤IC50<100 nM, and “+” 100 nM≤IC50.

Molecules are shown by their SMILES. A value given as a limit tells only on which side of the number the result lay.

Sequence of CDK6/cyclin D3 (Q00534 whole entry): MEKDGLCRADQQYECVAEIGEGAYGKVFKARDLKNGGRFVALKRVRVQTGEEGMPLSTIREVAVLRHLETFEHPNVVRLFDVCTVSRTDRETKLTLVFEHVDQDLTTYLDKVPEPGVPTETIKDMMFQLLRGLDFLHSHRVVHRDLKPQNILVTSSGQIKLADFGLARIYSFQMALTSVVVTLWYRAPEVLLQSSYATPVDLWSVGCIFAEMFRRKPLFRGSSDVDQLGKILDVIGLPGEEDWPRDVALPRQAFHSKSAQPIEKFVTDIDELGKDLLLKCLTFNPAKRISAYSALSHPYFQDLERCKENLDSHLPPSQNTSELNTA
Sequence of CDK6/cyclin D3 (P30281 whole entry partner): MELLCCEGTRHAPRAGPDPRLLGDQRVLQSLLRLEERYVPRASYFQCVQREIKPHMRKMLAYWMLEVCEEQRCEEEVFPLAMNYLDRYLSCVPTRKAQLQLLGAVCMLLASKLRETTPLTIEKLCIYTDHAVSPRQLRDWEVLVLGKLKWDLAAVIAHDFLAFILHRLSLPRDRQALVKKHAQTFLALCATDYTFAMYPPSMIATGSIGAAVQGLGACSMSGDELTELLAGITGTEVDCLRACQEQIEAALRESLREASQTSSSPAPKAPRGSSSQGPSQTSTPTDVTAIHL
T1 sequence (P11802 whole entry): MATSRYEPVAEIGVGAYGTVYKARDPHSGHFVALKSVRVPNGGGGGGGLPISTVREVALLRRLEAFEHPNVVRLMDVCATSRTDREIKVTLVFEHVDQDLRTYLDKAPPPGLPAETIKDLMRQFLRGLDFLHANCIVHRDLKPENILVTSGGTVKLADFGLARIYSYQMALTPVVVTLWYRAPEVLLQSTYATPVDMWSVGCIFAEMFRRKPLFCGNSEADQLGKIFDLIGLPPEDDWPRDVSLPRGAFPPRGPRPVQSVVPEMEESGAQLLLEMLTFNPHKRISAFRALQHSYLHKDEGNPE
T1 sequence (P30281 whole entry partner): as the sequence (P30281 whole entry partner) above

With `CCCNc1nc([C@@H](C)O)cc2cnc(Nc3ccc(CN4CCN(CCO)CC4)cn3)nc12` [Compound 844], the IC50 in assay [1] was under 10 nM; in assay [2], at least 100 nM; in assay [3], under 10 nM.

Turning to `CC(C)Nc1nc(C2(C)COC2)cc2cnc(Nc3ccc(N4CCNCC4)nn3)nc12` [Compound 879], the IC50 in assay [1] was under 10 nM; in assay [2] it was at least 100 nM; in assay [3], under 10 nM.

Consider `CC(C)Nc1nc(C2(C)COC2)cc2cnc(Nc3ccc(CN4CCNCC4)cn3)nc12` [Compound 883], for which the results for the IC50 in assay [1], in assay [2] and in assay [3] were under 10 nM, at least 100 nM and under 10 nM, respectively.

As for `CC(C)N(C)c1nc([C@@H](C)O)cc2cnc(Nc3ccc(N4CCNCCC4=O)cn3)nc12` [Compound 904], the results for the IC50 in assay [1], in assay [2] and in assay [3] were under 10 nM, at least 100 nM and under 10 nM, respectively.

As for `CC(C)Nc1nc([C@@H](C)O)cc2cnc(Nc3ccc4c(n3)CCN(CCO)C4)nc12` [Compound 929], the IC50 in assay [1] is under 10 nM; in assay [2], at least 100 nM; in assay [3], under 10 nM.

For `CC(C)Nc1nc([C@@H](C)O)cc2cnc(Nc3ccc4c(n3)CCN(CCN(C)C)C4)nc12` [Compound 954], the results for the IC50 in assay [1], in assay [2] and in assay [3] were under 10 nM, at least 100 nM and under 10 nM, respectively.

`CCC(O)c1cc2cnc(Nc3ccc(N4CCNCC4=O)cn3)nc2c(NC(C)C)n1` (stereo not drawn) [Compound 1036]: the IC50 was under 10 nM in assay [1], at least 100 nM in assay [2] and 10 to 100 nM in assay [3].
